Where two headings read alike, the source gives them in different places.
Columns and labels:
[1] = test system: 24 strains of S. aureus (SA1-SA24); test: Broth micro-dilution MIC against 24 strains of S. aureus; type: cell-based; settings: for MIC: Staphylococcus aureus, read-out: Compound MIC
Procedure: Compounds were tested for their anti-bacterial activity against 56 clinical isolates including 24 clinical isolates of methicillin resistant S. aureus (MRSA) and methicillin-susceptible S. aureus (MSSA), 8 strains of Enterococcus, 8 strains of Acinetobacter baumannii, 8 strains of Klebsiella pneumoniae, and 8 strains of Pseudomonas aeruginosa using a standard broth micro-dilution method as recommended by the Clinical and Laboratory Standard Institute (CLSI, M100, s23).
HN18 HN19, and HN34 were tested by a broth micro-dilution method to determine their minimal inhibitory concentration (MIC) against 24 strains of S. aureus (SA1-SA24) (Table 2). […]. Furthermore, the results for HN18 and HN34 were consistent across four repeated experiments. […]

[2] = test system: methicillin-resistant S. aureus clinical isolates (MRSA); S. aureus (K1902); test: Plasmid curing at sub-inhibitory concentration; type: cell-based, Staphylococcus aureus
Procedure: Plasmid curing was performed per Trevors (Trevors, 1986 Plasmid curing in bacteria. FEMS Microbiology, 32: 149-157). In brief, the clinical isolate was grown in the presence of HN18 and HN34 at the specified concentration for 18 h at 35° C. and then plated on Muller Hinton agar (MHA) plates to obtain isolated colonies. The isolated colonies were then replica plated onto MHA and MHA plates containing antibiotics. […] The percentage curing efficiency was expressed as the number of colonies with cured phenotype per 100 colonies tested. For plasmid extraction, 5 ml of an overnight culture of S. aureus strain was centrifuged and cells were subjected to 1 ml lysostaphin (20 μg/ml) for 1 hour at 35° C. prior to DNA extraction. Extraction of DNA was carried using QIAprep Spin Miniprep Kit (Qiagen) per manufacturer's instruction. DNA profile analysis was carried out by electrophoresis on 1.5% agarose gel.
The methicillin-resistant S. aureus clinical isolates (MRSA) growing in the presence of sub-inhibitory concentrations of HN18 and HN34 were taken for the evaluation for the loss of plasmids as described above. A culture control without a curing agent was also maintained in the curing experiment to estimate the rate of spontaneous loss of plasmids under these conditions. HN18 and HN34 eliminated the plasmid mediated antibiotic resistance markers with varying curing efficiencies (Table 3). HN18 cured plasmids from SA1, SA2, SA7 and SA8 at frequency in the range of 13-100%. HN34 also cured plasmids from SA1, SA2, SA7 and SA8 strains with 30%-100% curing efficiency.
Plasmid curing activity of HN18 and HN34 was also evaluated in S. aureus (K1902) which is known to harbor a 5 kb plasmid with a chloramphenicol resistance gene. Along with the KSA reference strain, the plasmid curing activity was repeated for SA1 and SA2 strains which are MRSA (Table 4).

[3] = test system: S. aureus clinical isolates; test: Synergistic effect with oxacillin (oxacillin MIC alone and in presence of SIC); type: cell-based, Staphylococcus aureus
Procedure: The synergistic effect (interaction) of HN18 and HN34 with different antibiotics against S. aureus clinical isolates was studied. The oxacillin MIC values of 8 clinical isolates of Staphylococcus aureus were determined. The oxacillin MIC of the same isolates were also determined after they were exposed to SIC of HN18, HN34 (Table 5). […] Column 2 and 3 show the oxacillin MIC value of the same isolates in presence of SIC of HN18 and HN34 respectively.

[4] = Table 3, isolate SA1, at SIC, lack of growth in presence of M, Ox (4 μg/ml)
[5] = Table 3, isolate SA2, at SIC, lack of growth in presence of M, Ox (4 μg/ml)
[6] = Table 3, isolate SA3, at SIC, lack of growth in presence of M, Ox (4 μg/ml)
[7] = Table 3, isolate SA4, at SIC, lack of growth in presence of M, Ox (4 μg/ml)
[8] = Table 3, isolate SA5, at SIC, lack of growth in presence of M, Ox (4 μg/ml)
[9] = Table 3, isolate SA6, at SIC, lack of growth in presence of M, Ox (4 μg/ml)
[10] = Table 3, isolate SA7, at SIC, lack of growth in presence of M, Ox (4 μg/ml)
[11] = Table 3, isolate SA8, at SIC, lack of growth in presence of M, Ox (4 μg/ml)

Cc1[nH]c2ccccc2c1C(c1ccc(F)c(F)c1)c1c(C)[nH]c2ccccc12 [HN34]
effective: Effect against the panel of S. aureus strains ([1]; 24 strains SA1-SA24, broth micro-dilution)
30%: Curing efficiency II [2, 10]
40%: Curing efficiency I [2, 11]
70%: Curing efficiency II [2, 5]
0.25 µg/mL: MIC ([1]; isolate SA14, experiment I)
33.3%: Curing efficiency (%) ([2]; Table 4, KSA (S. aureus K1902), experiment I, lack of growth in presence of Cm (10 μg/ml))
100%: Curing efficiency I [2, 4] | Curing efficiency II [2, 4] | Curing efficiency I [2, 5] | Curing efficiency I [2, 7] | Curing efficiency (%) ([2]; Table 4, isolate SA1, experiment I, lack of growth in presence of M, Ox (4 μg/ml))
absent: Plasmid band in agarose gel of cured derivatives ([2]; S. aureus K1902, FIG. 3)
0.5 µg/mL: MIC ([1]; isolate SA9, experiment I)
8 µg/mL: Oxacillin MIC in presence of SIC of the compound (1 μg/ml) ([3]; isolate SA11, experiment II)
50%: Curing efficiency I [2, 10] | Curing efficiency (%) ([2]; Table 4, KSA (S. aureus K1902), experiment II, lack of growth in presence of Cm (10 μg/ml))
did not show synergistic activity: Synergistic activity in combination with oxacillin ([3]; S. aureus clinical isolates, compound at SIC)
63.33%: Curing efficiency II [2, 11]
2 µg/mL: MIC ([1]; isolate SA1, experiment II) | MIC ([1]; isolate SA2, experiment I) | MIC ([1]; isolate SA2, experiment II) | MIC ([1]; isolate SA3, experiment I) | MIC ([1]; isolate SA3, experiment II) | MIC ([1]; isolate SA3, experiment III) | MIC ([1]; isolate SA3, experiment IV) | MIC ([1]; isolate SA4, experiment I) | MIC ([1]; isolate SA4, experiment II) | MIC ([1]; isolate SA4, experiment III) | MIC ([1]; isolate SA5, experiment II) | MIC ([1]; isolate SA5, experiment IV) | MIC ([1]; isolate SA8, experiment I) | MIC ([1]; isolate SA8, experiment II) | MIC ([1]; isolate SA8, experiment III) | MIC ([1]; isolate SA8, experiment IV) | MIC ([1]; isolate SA20, experiment I)
>16 µg/mL: Oxacillin MIC in presence of SIC of the compound (1 μg/ml) ([3]; isolate SA3, experiment I) | Oxacillin MIC in presence of SIC of the compound (1 μg/ml) ([3]; isolate SA3, experiment II) | Oxacillin MIC in presence of SIC of the compound (1 μg/ml) ([3]; isolate SA4, experiment I) | Oxacillin MIC in presence of SIC of the compound (1 μg/ml) ([3]; isolate SA4, experiment II) | Oxacillin MIC in presence of SIC of the compound (1 μg/ml) ([3]; isolate SA5, experiment II) | Oxacillin MIC in presence of SIC of the compound (1 μg/ml) ([3]; isolate SA9, experiment I) | Oxacillin MIC in presence of SIC of the compound (1 μg/ml) ([3]; isolate SA9, experiment II) | Oxacillin MIC in presence of SIC of the compound (1 μg/ml) ([3]; isolate SA15, experiment II) | Oxacillin MIC in presence of SIC of the compound (1 μg/ml) ([3]; isolate SA18, experiment I) | Oxacillin MIC in presence of SIC of the compound (1 μg/ml) ([3]; isolate SA18, experiment II)
16 µg/mL: Oxacillin MIC in presence of SIC of the compound (1 μg/ml) ([3]; isolate SA5, experiment I) | Oxacillin MIC in presence of SIC of the compound (1 μg/ml) ([3]; isolate SA10, experiment I) | Oxacillin MIC in presence of SIC of the compound (1 μg/ml) ([3]; isolate SA10, experiment II) | Oxacillin MIC in presence of SIC of the compound (1 μg/ml) ([3]; isolate SA11, experiment I) | Oxacillin MIC in presence of SIC of the compound (1 μg/ml) ([3]; isolate SA15, experiment I)
96.6%: Curing efficiency (%) ([2]; Table 4, isolate SA2, experiment I, lack of growth in presence of M, Ox (4 μg/ml))
1 µg/mL: MIC ([1]; isolate SA1, experiment I) | MIC ([1]; isolate SA1, experiment III) | MIC ([1]; isolate SA1, experiment IV) | MIC ([1]; isolate SA2, experiment III) | MIC ([1]; isolate SA2, experiment IV) | MIC ([1]; isolate SA5, experiment I) | MIC ([1]; isolate SA5, experiment III) | MIC ([1]; isolate SA6, experiment I) | MIC ([1]; isolate SA6, experiment II) | MIC ([1]; isolate SA6, experiment III) | MIC ([1]; isolate SA6, experiment IV) | MIC ([1]; isolate SA7, experiment I) | MIC ([1]; isolate SA7, experiment II) | MIC ([1]; isolate SA7, experiment III) | MIC ([1]; isolate SA7, experiment IV) | MIC ([1]; isolate SA10, experiment I) | MIC ([1]; isolate SA11, experiment I) | MIC ([1]; isolate SA12, experiment I) | MIC ([1]; isolate SA13, experiment I) | MIC ([1]; isolate SA15, experiment I) | MIC ([1]; isolate SA16, experiment I) | MIC ([1]; isolate SA17, experiment I) | MIC ([1]; isolate SA18, experiment I) | MIC ([1]; isolate SA19, experiment I) | MIC ([1]; isolate SA21, experiment I) | MIC ([1]; isolate SA22, experiment I) | MIC ([1]; isolate SA23, experiment I) | MIC ([1]; isolate SA24, experiment I)
0%: Curing efficiency I [2, 6] | Curing efficiency II [2, 6] | Curing efficiency II [2, 7] | Curing efficiency I [2, 8] | Curing efficiency II [2, 8] | Curing efficiency I [2, 9] | Curing efficiency II [2, 9]
became susceptible: Susceptibility of isolates after exposure to SIC ([2]; SA1 and SA2 to oxacillin, KSA to chloramphenicol)

Reference: patent publication US20200283384A1, “ANTIBACTERIAL COMPOUNDS AND METHODS OF USE THEREOF” (Wayne State University, priority 2016, published 2020)
